The IC50 is the point on the concentration scale where inhibition reaches its midpoint.

Assay [1] is filed under the species Rattus norvegicus. Description: Displacement of [3H]prazosin from alpha1 adrenergic receptor in Sprague-Dawley rat cortical membrane at 1 uM.
Assay [2] has as its target Sodium-dependent serotonin transporter (Homo sapiens, UniProt P31645). The format is cell-based, JAR.
Description: Inhibition of 5-HT transporter-mediated [3H]5HT uptake in human Jar cells
Assay [3] addresses T1, 5-hydroxytryptamine receptor 1A (Homo sapiens, UniProt P08908).
T1 sequence (P08908 whole entry): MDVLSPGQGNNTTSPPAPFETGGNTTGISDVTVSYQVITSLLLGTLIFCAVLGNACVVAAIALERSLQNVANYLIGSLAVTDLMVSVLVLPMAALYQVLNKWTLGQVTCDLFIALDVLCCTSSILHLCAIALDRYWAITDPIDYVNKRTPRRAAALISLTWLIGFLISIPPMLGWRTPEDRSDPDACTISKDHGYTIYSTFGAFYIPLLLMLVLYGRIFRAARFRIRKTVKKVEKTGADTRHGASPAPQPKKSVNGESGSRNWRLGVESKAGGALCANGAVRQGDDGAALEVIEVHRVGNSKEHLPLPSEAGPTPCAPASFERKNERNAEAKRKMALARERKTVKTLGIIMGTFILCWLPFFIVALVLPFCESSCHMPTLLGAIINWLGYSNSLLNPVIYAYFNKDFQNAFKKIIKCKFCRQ
Description: Activity at human cloned 5HT1A receptor expressed in CHO cells assessed as blockade of 5-HT-stimulated [35S]GTPgammaS binding

Sodium-dependent serotonin transporter, sequence (P31645 whole entry): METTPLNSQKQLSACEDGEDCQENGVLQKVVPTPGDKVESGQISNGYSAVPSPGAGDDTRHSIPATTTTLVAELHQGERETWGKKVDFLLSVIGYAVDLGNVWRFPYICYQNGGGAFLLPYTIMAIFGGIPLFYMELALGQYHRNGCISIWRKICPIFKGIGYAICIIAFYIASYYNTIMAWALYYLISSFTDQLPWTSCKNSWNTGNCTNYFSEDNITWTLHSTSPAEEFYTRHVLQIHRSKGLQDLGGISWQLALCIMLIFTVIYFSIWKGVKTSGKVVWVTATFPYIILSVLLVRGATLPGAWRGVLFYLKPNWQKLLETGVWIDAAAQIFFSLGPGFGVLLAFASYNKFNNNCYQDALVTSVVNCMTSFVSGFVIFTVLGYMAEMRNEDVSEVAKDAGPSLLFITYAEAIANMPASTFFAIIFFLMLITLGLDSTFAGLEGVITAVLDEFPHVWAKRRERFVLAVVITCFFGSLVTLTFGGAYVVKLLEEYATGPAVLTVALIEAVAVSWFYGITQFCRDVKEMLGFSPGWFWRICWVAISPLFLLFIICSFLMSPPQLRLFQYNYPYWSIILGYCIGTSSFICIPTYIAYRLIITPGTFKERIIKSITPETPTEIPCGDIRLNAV

Take `NC(=O)c1ccc(F)c2c1CC(N(CCCCn1ccc3cccc(F)c31)CC1CC1)CO2` (stereo not drawn): the Activity in assay [1] was 27%. Besides, in assay [2], the IC50 worked out at 138 nM. The like results for `CCCN(CCCc1c[nH]c2ccc(F)cc12)[C@H]1COc2c(F)ccc(OC)c2C1` were, in that order, 50% and 379 nM. Consider `NC(=O)c1ccc(F)c2c1C[C@@H](NCC1CCc3[nH]c4ccc(F)cc4c3C1)CO2` (stereo in doubt; 57a) [listing 1 of 2 here], for which, in assay [1], the Activity came to 23%. Still for that read-out and setting: under `N#Cc1ccc2[nH]cc(CCCN(C3CCC3)C3COc4c(F)ccc(C(N)=O)c4C3)c2c1` (single isomer, unassigned; (+)) stands 27%. Compound `CCCN(CC1CCc2[nH]c3ccc(F)cc3c2C1)[C@H]1COc2c(F)ccc(C(N)=O)c2C1` (single isomer, unassigned; (+)) [listing 1 of 2 here] displayed an IC50 in assay [2] (jar) greater than 1000 nM. In assay [2], `COC(=O)c1ccc(F)c2c1CC(N(CCCc1c[nH]c3ccc(F)cc13)C1CCC1)CO2` (stereo not drawn) displayed an IC50 of 1860 nM. `COc1cccc2c1CC(N(CCCc1c[nH]c3ccc(F)cc13)C1CCC1)CO2` (stereo not drawn): in assay [3], the IC50 is greater than 2000 nM. The compound further came in with an Activity in assay [1] of 15%.

On to `NC(=O)c1ccc(F)c2c1CC(N(CCCCn1ccc3c(F)cccc31)CC1CC1)CO2` (stereo not drawn), for which the IC50 in assay [3] and in assay [2] was greater than 1000 nM in each case. In assay [1], the Activity is 18%.

As for `NC(=O)c1ccc(F)c2c1CC(N(CCCCn1ccc3c(F)cccc31)C1CCC1)CO2` (stereo not drawn), the Activity in assay [1] stood at 5%. This compound showed an IC50 in assay [2] of 103 nM. In assay [1], `NC(=O)c1ccc(F)c2c1C[C@@H](N(CC1CC1)CC1CCc3[nH]c4ccc(F)cc4c3C1)CO2` (stereo in doubt; 59a) [listing 1 of 2 here] displayed an Activity of 3%. Same read-out and setting: under `NC(=O)c1cccc2c1CC(N(CCCc1c[nH]c3ccc(F)cc13)C1CCC1)CO2` (stereo in doubt; (+)-35e) [listing 1 of 2 here] stands 6%. Regarding `CCCN(CCCCn1ccc2ccc(F)cc21)C1COc2c(F)ccc(C(N)=O)c2C1` (stereo not drawn), in assay [1], the Activity turned out to be 15%. The compound also displayed an IC50 in assay [2] of 776 nM. In turn, `NC(=O)c1ccc(F)c2c1CC(N(CCCc1c[nH]c3ccc(Cl)cc13)C1CCC1)CO2` (stereo not drawn) yielded an Activity in assay [1] of 20%. The midpoint of inhibition in assay [2], the IC50, lay at 612 nM. As for `N#Cc1ccc2[nH]cc(CCCN(C3CCC3)C3COc4c(F)ccc(C(N)=O)c4C3)c2c1` (single isomer, unassigned; (-)), the Activity in assay [1] came to 19%. Turning to `CC(CCc1c[nH]c2ccc(F)cc12)N(CC1CC1)C1COc2c(F)ccc(C(N)=O)c2C1` (single isomer, unassigned; (-)) [listing 1 of 2 here], the IC50 in assay [3] turned out to be 333 nM; in assay [2], 193 nM.

In assay [1], `CCCN(CC1CCc2[nH]c3ccc(F)cc3c2C1)[C@H]1COc2c(F)ccc(C(N)=O)c2C1` (single isomer, unassigned; (+)) [listing 2 of 2 here] returned an Activity of 15%. As to `CN(C)C(=O)c1ccc(F)c2c1CC(N(CCCc1c[nH]c3ccc(F)cc13)C1CCC1)CO2` (stereo not drawn), the IC50 in assay [3] is greater than 2000 nM; in assay [2], 218 nM.

The compound `NC(=O)c1cccc2c1CC(N(CCCc1c[nH]c3ccc(F)cc13)C1CCC1)CO2` (stereo in doubt; (+)-35e) [listing 2 of 2 here] returned an IC50 in assay [2] of 28.3 nM. The compound `NC(=O)c1ccc(F)c2c1C[C@@H](N(CC1CC1)CC1CCc3[nH]c4ccc(F)cc4c3C1)CO2` (stereo in doubt; 59b) [listing 1 of 2 here] displayed an Activity in assay [1] of 22%.

On to `CCCN(CCCCn1ccc2cc(F)ccc21)C1COc2c(F)ccc(C(N)=O)c2C1` (stereo not drawn), for which the IC50 in assay [2] was greater than 1000 nM.

With `NC(=O)c1ccc(F)c2c1C[C@@H](N(CC1CC1)CC1CCc3[nH]c4ccc(F)cc4c3C1)CO2` (stereo in doubt; 59a) [listing 2 of 2 here], the IC50 in assay [3] and in assay [2] was greater than 1000 nM each time. As for `NC(=O)c1ccc(F)c2c1CC(N(CCCc1c[nH]c3ccc(F)cc13)C1CCC1)CO2` (stereo not drawn), the Activity in assay [1] came out at 16%.

In the case of `CC(CCc1c[nH]c2ccc(F)cc12)N(CC1CC1)C1COc2c(F)ccc(C(N)=O)c2C1` (single isomer, unassigned; (+)) [listing 1 of 2 here], in assay [2], the IC50 is 162 nM. That is a sub-micromolar value. Turning to `NC(=O)c1ccc(F)c2c1CC(N(CCCc1c[nH]c3c(F)cc(F)cc13)C1CCC1)CO2` (single isomer, unassigned; (-)), the figures for the IC50 in assay [3] and in assay [2] were 206 nM and 71.6 nM, respectively. The compound `NC(=O)c1ccc(Cl)c2c1CC(N(CCCc1c[nH]c3ccc(F)cc13)C1CCC1)CO2` (single isomer, unassigned; (-)) registered an Activity in assay [1] of 22%.

As to `NC(=O)c1ccc(F)c2c1CC(N(CCCc1c[nH]c3c(F)cc(F)cc13)C1CCC1)CO2` (single isomer, unassigned; (+)) [listing 1 of 2 here], the values for the IC50 in assay [3] and in assay [2] were greater than 1000 nM and 225 nM, respectively. The like results for `NC(=O)c1ccc(F)c2c1CC(N(CCCCn1ccc3cc(F)ccc31)C1CCC1)CO2` (stereo not drawn) were, in that order, greater than 1000 nM and greater than 1000 nM. With `NC(=O)c1cccc2c1CC(N(CCCc1c[nH]c3ccc(F)cc13)C1CCC1)CO2` (single isomer, unassigned; (-)), the Activity in assay [1] is 10%. Consider `CCCN(CCCc1c[nH]c2ccc(F)cc12)[C@H]1COc2c(F)ccc(C(N)=O)c2C1`, for which, in assay [3], half-maximal inhibition (IC50) was put at 405 nM. In the case of `CC(CCc1c[nH]c2ccc(F)cc12)N(CC1CC1)C1COc2c(F)ccc(C(N)=O)c2C1` (single isomer, unassigned; (+)) [listing 2 of 2 here], in assay [1], the Activity is 7%. In turn, `CCCN(CCCc1c[nH]c2ccc(F)cc12)[C@@H]1COc2c(F)ccc(OC)c2C1` returned an IC50 in assay [2] of 452 nM. In turn, `NC(=O)c1ccc(F)c2c1CC(N(CCCCn1ccc3ccc(F)cc31)C1CCC1)CO2` (stereo not drawn) came in with an Activity in assay [1] of 7%. The same compound showed an IC50 in assay [2] greater than 1000 nM. In turn, `NC(=O)c1ccc(F)c2c1CC(N(CCCc1c[nH]c3c(F)cc(F)cc13)C1CCC1)CO2` (single isomer, unassigned; (+)) [listing 2 of 2 here] returned an Activity in assay [1] of 5%. For the compound `CCCN(CC1CCc2[nH]c3ccc(F)cc3c2C1)[C@H]1COc2c(F)ccc(C(N)=O)c2C1` (stereo in doubt; 58a), the Activity in assay [1] turned out to be 5%. For `NC(=O)c1ccc(F)c2c1C[C@@H](NCC1CCc3[nH]c4ccc(F)cc4c3C1)CO2` (stereo in doubt; 57b), the IC50 in assay [2] is greater than 1000 nM. In assay [1], `CCCN(CCCc1c[nH]c2ccc(F)cc12)[C@@H]1COc2c(F)ccc(C(N)=O)c2C1` had an Activity of 46%. As for `COc1cccc2c1C[C@@H](N(CCCc1c[nH]c3ccc(F)cc13)C1CCC1)CO2`, the Activity in assay [1] worked out at 15%. `NC(=O)c1ccc(F)c2c1C[C@@H](NCC1CCc3[nH]c4ccc(F)cc4c3C1)CO2` (stereo in doubt; 57a) [listing 2 of 2 here] returned an IC50 in assay [2] of 291 nM. In assay [1], `CCCN(CCCCn1ccc2cccc(F)c21)C1COc2c(F)ccc(C(N)=O)c2C1` (stereo not drawn) showed an Activity of 39%. In assay [2], this compound came in with an IC50 of 435 nM. Consider `NC(=O)c1ccc(F)c2c1CC(N(CCCc1c[nH]c3cc(F)ccc13)C1CCC1)CO2` (stereo not drawn), for which, in assay [1], the Activity is 30%. The same compound had an IC50 in assay [2] of 899 nM.

As for `NC(=O)c1ccc(F)c2c1C[C@@H](N(CCCc1c[nH]c3ccc(F)cc13)C1CCC1)CO2`, in assay [1], the Activity turned out to be 21%. Compound `NC(=O)c1ccc(F)c2c1C[C@@H](N(CC1CC1)CC1CCc3[nH]c4ccc(F)cc4c3C1)CO2` (stereo in doubt; 59b) [listing 2 of 2 here] showed an IC50 in assay [2] (jar) greater than 1000 nM. On to `CC(CCc1c[nH]c2ccc(F)cc12)N(CC1CC1)C1COc2c(F)ccc(C(N)=O)c2C1` (single isomer, unassigned; (-)) [listing 2 of 2 here], for which the Activity in assay [1] was 15%. In assay [2], `NC(=O)c1ccc(F)c2c1CC(N(CCCCn1ccc3cc(F)ccc31)CC1CC1)CO2` (stereo not drawn) gave an IC50 greater than 1000 nM. In the case of `CCCN(CCCCn1ccc2c(F)cccc21)C1COc2c(F)ccc(C(N)=O)c2C1` (stereo not drawn), the Activity in assay [1] came out at 23%. Further, the IC50 in assay [2] is greater than 1000 nM.
